Experimental data as given in PubChem BioAssay (NCI).
Several values for one entry are separate records, joined by “and”; a condition that tells them apart may be missing. Identical values can stand only once.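 Values below derive from 48-hour exposures of cells grown in 96-well plates, with endpoints linearly interpolated between the two concentrations bracketing the appropriate inhibition level. GI50: concentration for 50% inhibition of growth. TGI: concentration producing complete growth inhibition.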

How the values were obtained:
Assay in all cases: NCI tumour cell line growth inhibition, 48 h
[1] = test system: RPMI-8226 leukemia
[2] = test system: CCRF-CEM leukemia
[3] = test system: OVCAR-3 ovarian
[4] = test system: MALME-3M melanoma
[5] = test system: CAKI-1 renal
[6] = test system: DU-145 prostate
[7] = test system: U251 CNS
[8] = test system: UACC-62 melanoma
[9] = test system: M14 melanoma
[10] = test system: SK-OV-3 ovarian

Compound COc1ccc(/C=C/C(=O)c2ccc(B(O)O)cc2)cc1O has a GI50 [1] of 3.27 µM, a TGI [1] of 23 µM and a GI50 [2] of 7.23 µM. It also gave a TGI [2] of 44.4 µM, a GI50 [3] of 7.27 µM and a TGI [3] of 20.1 µM. The GI50 [4] was 32.3 µM, the TGI [4] was > 100 µM and the GI50 [5] was 17.7 µM. For the same compound, the TGI [5] was > 70.8 µM, the GI50 [6] was 6.21 µM and the TGI [6] was 28.9 µM. The GI50 [7] was 9.37 µM, the TGI [7] was 27 µM and the GI50 [8] was 14.3 µM. It also gave a TGI [8] of 33.2 µM, a GI50 [9] of 8.03 µM and a TGI [9] of 29.6 µM. For the same compound, the GI50 [10] was 22.2 µM and the TGI [10] was > 89.1 µM.

Work on O=C1NC(=N[C@@H]2C[C@H]2c2ccccc2)S/C1=C\c1ccc2ncccc2c1 yielded a GI50 [1] of 1.28 µM, a TGI [1] of 7.52 µM and a GI50 [2] of 1.31 µM. The TGI [2] was > 25 µM, the GI50 [3] was 3.01 µM and the TGI [3] was 10.3 µM. It also gave a GI50 [4] of 2.62 µM, a TGI [4] of 12.1 µM and a GI50 [5] of 1.03 µM. For the same compound, the TGI [5] was 6.46 µM, the GI50 [6] was 1.94 µM and the TGI [6] was 24.9 µM. For the same compound, the GI50 [7] was 0.875 µM, the TGI [7] was 6.94 µM and the GI50 [8] was 1.2 µM. The TGI [8] was 5.61 µM, the GI50 [9] was 1.34 µM and the TGI [9] was > 25 µM. It also gave a GI50 [10] of 1.06 µM and a TGI [10] of 4.06 µM.

With O=C(NCCCNc1cc(-c2cn(-c3ccccc3)nc2-c2cccc(O)c2)ccn1)c1ccc(F)cc1 the GI50 [1] was 1.94 µM, the TGI [1] was 5.55 µM and the GI50 [2] was 1.54 µM. For the same compound, the TGI [2] was > 100 µM, the GI50 [3] was 4.03 µM and the TGI [3] was 40.7 µM. It also gave a GI50 [4] of 1.95 µM, a TGI [4] of 4.49 µM and a GI50 [5] of 2.84 µM. It also gave a TGI [5] of 21.2 µM, a GI50 [6] of 4.63 µM and a TGI [6] of 53.4 µM. It also gave a GI50 [7] of 2.96 µM, a TGI [7] of 10.9 µM and a GI50 [8] of 2.05 µM. It also gave a TGI [8] of 5.08 µM, a GI50 [9] of 1.85 µM and a TGI [9] of 4.28 µM. The GI50 [10] was 3.39 µM and the TGI [10] was 24.2 µM.

With CSc1nc(SC)c2cnn(-c3ccnc4cc(Cl)ccc34)c2n1 the GI50 [1] was > 55.7 µM, the TGI [1] was > 100 µM and the GI50 [2] was > 100 µM. The TGI [2] was > 100 µM, the GI50 [3] was 6.87 µM and the TGI [3] was > 31.2 µM. The GI50 [4] was 32.9 µM, the TGI [4] was > 100 µM and the GI50 [5] was 22.9 µM. The TGI [5] was > 100 µM, the GI50 [6] was 42.6 µM and the TGI [6] was > 67 µM. The GI50 [7] was 45.4 µM, the TGI [7] was > 100 µM and the GI50 [8] was 33.9 µM. For the same compound, the TGI [8] was > 100 µM, the GI50 [9] was 34.8 µM and the TGI [9] was > 94.7 µM. For the same compound, the GI50 [10] was > 81.1 µM and the TGI [10] was > 100 µM.

CC[C@@]1(O)C(=O)OCc2c1cc1n(c2=O)Cc2cc3c(OC)cccc3nc2-1 gave a TGI [1] of 1.81 µM, a GI50 [2] of 0.00022 µM and a GI50 [3] of 0.0434 µM. The TGI [3] was 1.21 µM, the TGI [4] was 1.89 µM and the GI50 [5] was 0.00503 µM and < 0.215 µM. It also gave a TGI [5] of 0.238 µM, a GI50 [6] of 0.00266 µM and a GI50 [7] of 0.00858 µM. For the same compound, the GI50 [8] was 0.00262 µM, the TGI [8] was 0.0456 µM and 0.106 µM and the GI50 [9] was 0.00323 µM. It also gave a TGI [9] of 1.61 µM, a GI50 [10] of 0.00955 µM and a TGI [10] of 4.41 µM.

Compound CN1CCN(C(=O)OCc2nc3c(N4CCOCC4)nc(-c4ccccc4)nc3n2C)CC1 has a GI50 [1] of 0.335 µM, a TGI [1] of 1.87 µM and a GI50 [2] of 0.321 µM. For the same compound, the TGI [2] was 1.57 µM, the GI50 [3] was 0.295 µM and the TGI [3] was 1.16 µM. For the same compound, the GI50 [4] was 1.44 µM, the TGI [4] was 2.8 µM and the GI50 [5] was 0.471 µM. The TGI [5] was 1.83 µM, the GI50 [6] was 1.19 µM and the TGI [6] was 2.48 µM. It also gave a GI50 [7] of 1.52 µM, a TGI [7] of 3.17 µM and a GI50 [8] of 1.25 µM. It also gave a TGI [8] of 2.52 µM, a GI50 [9] of 1.07 µM and a TGI [9] of 2.44 µM. For the same compound, the GI50 [10] was 2.97 µM and the TGI [10] was 9.13 µM.

For CSc1nc(SC)c2c(C)cn(Cc3ccccc3)c2n1, the TGI [1] was > 100 µM, the TGI [2] was > 100 µM and the TGI [3] was > 100 µM. For the same compound, the TGI [4] was > 100 µM, the TGI [5] was > 100 µM and the TGI [6] was > 100 µM. For the same compound, the TGI [7] was > 100 µM, the TGI [8] was > 100 µM and the TGI [9] was > 100 µM. The TGI [10] was > 100 µM.

With CC(C)c1ccc2c(c1)CCC1C(C)(CN)CCCC21C (stereo not given) the TGI [1] was 4.3 µM, the TGI [2] was 3.92 µM and the TGI [3] was 3.26 µM. It also gave a TGI [4] of 2.8 µM, a TGI [5] of 2.96 µM and a TGI [6] of 3.33 µM. The TGI [7] was 2.83 µM, the TGI [8] was 3.14 µM and the TGI [9] was 3.1 µM. For the same compound, the TGI [10] was 3.98 µM.

O=C1/C(=C\c2ccc(Cl)cc2)CN(C(=O)c2ccccc2)C/C1=C\c1ccc(Cl)cc1 showed a GI50 [1] of 0.274 µM, a TGI [1] of 1.36 µM and a GI50 [2] of 2.5 µM. The TGI [2] was > 70.2 µM, the GI50 [3] was 2.43 µM and the TGI [3] was 5.49 µM. It also gave a GI50 [4] of 9.17 µM, a TGI [4] of 51.7 µM and a GI50 [5] of 8.45 µM. For the same compound, the TGI [5] was > 100 µM, the GI50 [6] was 4.12 µM and the TGI [6] was > 56.4 µM. The GI50 [7] was 1.57 µM, the TGI [7] was 3.26 µM and the GI50 [8] was 1.86 µM. It also gave a TGI [8] of 4.55 µM, a GI50 [9] of 2.63 µM and a TGI [9] of 7.39 µM. It also gave a GI50 [10] of 4.64 µM and a TGI [10] of 32.3 µM.

For O=C(NC(=S)Nc1ccc(-c2nc3ccccc3[nH]2)cc1)c1ccc2ccccc2c1, the GI50 [1] was 2.62 µM, the TGI [1] was 9.29 µM and the GI50 [2] was 6 µM. For the same compound, the TGI [2] was > 100 µM, the GI50 [3] was 3.22 µM and the TGI [3] was 10.1 µM. The GI50 [4] was 2.14 µM, the TGI [4] was 5.54 µM and the GI50 [5] was 1.96 µM. For the same compound, the TGI [5] was 4.58 µM, the GI50 [6] was 3.9 µM and the TGI [6] was > 100 µM. For the same compound, the GI50 [7] was 3.62 µM, the TGI [7] was 18.1 µM and the GI50 [8] was 4.06 µM. The TGI [8] was > 100 µM, the GI50 [9] was 4.79 µM and the TGI [9] was > 100 µM. For the same compound, the GI50 [10] was 12.8 µM and the TGI [10] was 37 µM.
